Assay results: ChEMBL document CHEMBL1201862, “PubChem BioAssay data set” (2004)
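Dose response: 5 concentrations. Exposure: 48 h. Format: 96-well plates. Endpoint: linear interpolation; highest concentration if not reached. Abbreviation: GI50, concentration required for 50% inhibition of growth.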 Active and inactive are the calls of the source. Cut-off read from the data, not from the text of the source: active = GI50 up to about 1.1 µM and inactive = higher.

What was measured:
Experiment in all cases: DTP human tumour cell line panel, 48 h
KM12 = system: KM12
TK-10 = system: TK-10
ACHN = system: ACHN
OVCAR-4 = system: OVCAR-4
HCT-116 = system: HCT-116
CCRF-CEM = system: CCRF-CEM
SR = system: SR
A498 = system: A498
NCI-H460 = system: NCI-H460
786-0 = system: 786-0
SF-268 = system: SF-268
A549 = system: A549
OVCAR-8 = system: OVCAR-8
NCI-H522 = system: NCI-H522
LOX IMVI = system: LOX IMVI
UO-31 = system: UO-31
SF-295 = system: SF-295
BT-549 = system: BT-549
RXF 393 = system: RXF 393
IGROV-1 = system: IGROV-1
EKVX = system: EKVX
COLO 205 = system: COLO 205
MOLT-4 = system: MOLT-4
SK-MEL-5 = system: SK-MEL-5
U-251 = system: U-251
RPMI-8226 = system: RPMI-8226
SW-620 = system: SW-620
UACC-257 = system: UACC-257
OVCAR-5 = system: OVCAR-5
Malme-3M = system: Malme-3M
NCI-H226 = system: NCI-H226
DU-145 = system: DU-145
CAKI-1 = system: CAKI-1
MDA-MB-435 = system: MDA-MB-435
T47D = system: T47D
Hs-578T = system: Hs-578T
UACC-62 = system: UACC-62
SN12C = system: SN12C
HCT-15 = system: HCT-15
SK-MEL-2 = system: SK-MEL-2
MDA-MB-231 = system: MDA-MB-231
SNB-75 = system: SNB-75
HOP-92 = system: HOP-92
SK-MEL-28 = system: SK-MEL-28
OVCAR-3 = system: OVCAR-3
MCF7 = system: MCF7
HCC 2998 = system: HCC 2998
SNB-19 = system: SNB-19
SF-539 = system: SF-539
HL-60 = system: HL-60
MDA-N = system: MDA-N
NCI/ADR-RES = system: NCI/ADR-RES
M14 = system: M14
PC-3 = system: PC-3
K562 = system: K562
SK-OV-3 = system: SK-OV-3
NCI-H23 = system: NCI-H23
HOP-62 = system: HOP-62
HT-29 = system: HT-29

Compound: N#Cc1c(N)c2c(c(-c3ccccc3)c1-c1ccccc1)C(=O)N(O)C2=O
- GI50 (KM12): 29.6 µM (inactive)
- GI50 (TK-10): 91.4 µM (inactive)
- GI50 (ACHN): > 100 µM (inactive)
- GI50 (OVCAR-4): 66.8 µM (inactive)
- GI50 (HCT-116): 19.5 µM (inactive)
- GI50 (CCRF-CEM): 29.8 µM (inactive)
- GI50 (SR): 62.7 µM (inactive)
- GI50 (A498): 37.8 µM (inactive)
- GI50 (NCI-H460): 47.1 µM (inactive)
- GI50 (786-0): 47.1 µM (inactive)
- GI50 (SF-268): > 100 µM (inactive)
- GI50 (A549): 31 µM (inactive)
- GI50 (OVCAR-8): > 100 µM (inactive)
- GI50 (NCI-H522): 56.2 µM (inactive)
- GI50 (LOX IMVI): 89.7 µM (inactive)
- GI50 (UO-31): 37 µM (inactive)
- GI50 (SF-295): 38.7 µM (inactive)
- GI50 (BT-549): 42.2 µM (inactive)
- GI50 (RXF 393): 10.5 µM (inactive)
- GI50 (IGROV-1): 19.5 µM (inactive)
- GI50 (EKVX): 36.6 µM (inactive)
- GI50 (COLO 205): 20.2 µM (inactive)
- GI50 (MOLT-4): 35.6 µM (inactive)
- GI50 (SK-MEL-5): 25.3 µM (inactive)
- GI50 (U-251): 94.6 µM (inactive)
- GI50 (RPMI-8226): 42.4 µM (inactive)
- GI50 (SW-620): 96.8 µM (inactive)
- GI50 (UACC-257): > 100 µM (inactive)
- GI50 (OVCAR-5): 63 µM (inactive)
- GI50 (Malme-3M): > 100 µM (inactive)
- GI50 (NCI-H226): 18.8 µM (inactive)
- GI50 (DU-145): 39.4 µM (inactive)
- GI50 (CAKI-1): > 100 µM (inactive)
- GI50 (MDA-MB-435): 79.4 µM (inactive)
- GI50 (T47D): 22.8 µM (inactive)
- GI50 (Hs-578T): 18.9 µM (inactive)
- GI50 (UACC-62): 39.9 µM (inactive)
- GI50 (SN12C): > 100 µM (inactive)
- GI50 (HCT-15): 70 µM
- GI50 (SK-MEL-2): 41 µM (inactive)
- GI50 (MDA-MB-231): > 100 µM (inactive)
- GI50 (SNB-75): 34 µM (inactive)
- GI50 (HOP-92): 64.1 µM (inactive)
- GI50 (SK-MEL-28): 40.7 µM (inactive)
- GI50 (OVCAR-3): 26.9 µM (inactive)
- GI50 (MCF7): 46.1 µM (inactive)
- GI50 (HCC 2998): 17.5 µM (inactive)
- GI50 (SNB-19): 37.8 µM (inactive)
- GI50 (SF-539): 66.5 µM (inactive)
- GI50 (HL-60): 53.7 µM (inactive)
- GI50 (MDA-N): 82 µM (inactive)
- GI50 (NCI/ADR-RES): > 100 µM (inactive)
- GI50 (M14): > 100 µM (inactive)
- GI50 (PC-3): 14.1 µM (inactive)
- GI50 (K562): 91.8 µM (inactive)

Compound: O=C1C[C@@H](Sc2ccccc2)C2(OCCO2)[C@H]2ON3CCC[C@@H]3[C@@H]12
- GI50 (KM12): 4.4 µM (inactive)
- GI50 (SK-OV-3): 13.2 µM (inactive)
- GI50 (TK-10): 6.71 µM (inactive)
- GI50 (ACHN): 3.4 µM (inactive)
- GI50 (OVCAR-4): 5 µM (inactive)
- GI50 (HCT-116): 1.55 µM (inactive)
- GI50 (CCRF-CEM): 0.782 µM (active)
- GI50 (SR): 1.3 µM (inactive)
- GI50 (A498): 10.9 µM (inactive)
- GI50 (NCI-H460): 4.36 µM (inactive)
- GI50 (NCI-H23): 4.61 µM (inactive)
- GI50 (786-0): 2.07 µM (inactive)
- GI50 (SF-268): 2.95 µM (inactive)
- GI50 (A549): 10.3 µM (inactive)
- GI50 (OVCAR-8): 2.03 µM (inactive)
- GI50 (LOX IMVI): 3.1 µM (inactive)
- GI50 (UO-31): 1.94 µM (inactive)
- GI50 (SF-295): 11.4 µM (inactive)
- GI50 (BT-549): 6.53 µM (inactive)
- GI50 (IGROV-1): 2.24 µM (inactive)
- GI50 (COLO 205): 2.48 µM (inactive)
- GI50 (MOLT-4): 1.04 µM (active)
- GI50 (U-251): 3.33 µM (inactive)
- GI50 (RPMI-8226): 2.85 µM (inactive)
- GI50 (SW-620): 2.14 µM (inactive)
- GI50 (UACC-257): 13.4 µM (inactive)
- GI50 (Malme-3M): 1.82 µM (inactive)
- GI50 (NCI-H226): 7.67 µM (inactive)
- GI50 (DU-145): 2.55 µM (inactive)
- GI50 (CAKI-1): 4.42 µM (inactive)
- GI50 (MDA-MB-435): 2.58 µM (inactive)
- GI50 (T47D): 2.83 µM (inactive)
- GI50 (Hs-578T): 2.77 µM (inactive)
- GI50 (UACC-62): 10.9 µM (inactive)
- GI50 (SN12C): 2.33 µM (inactive)
- GI50 (HCT-15): 2.44 µM
- GI50 (SK-MEL-2): 3.72 µM (inactive)
- GI50 (MDA-MB-231): 3.06 µM (inactive)
- GI50 (HOP-92): 3.89 µM (inactive)
- GI50 (SK-MEL-28): 7.83 µM (inactive)
- GI50 (OVCAR-3): 1.68 µM (inactive)
- GI50 (MCF7): 3.33 µM (inactive)
- GI50 (HCC 2998): 8 µM (inactive)
- GI50 (SNB-19): 14.8 µM (inactive)
- GI50 (SF-539): 2.87 µM (inactive)
- GI50 (HL-60): 1.38 µM (inactive)
- GI50 (MDA-N): 2.7 µM (inactive)
- GI50 (HOP-62): 3.16 µM (inactive)
- GI50 (NCI/ADR-RES): 3.31 µM (inactive)
- GI50 (HT-29): 1.17 µM (inactive)
- GI50 (M14): 2.12 µM (inactive)
- GI50 (PC-3): 4.55 µM (inactive)
- GI50 (K562): 2.56 µM (inactive)

Compound: Fc1cccc(C2SCC3=Nc4ccccc4CN32)c1 (stereo not drawn)
- GI50 (KM12): 95.5 µM (inactive)
- GI50 (SK-OV-3): 39.6 µM (inactive)
- GI50 (TK-10): 67.8 µM (inactive)
- GI50 (ACHN): 36.9 µM (inactive)
- GI50 (OVCAR-4): 95.7 µM (inactive)
- GI50 (HCT-116): 27.8 µM (inactive)
- GI50 (CCRF-CEM): 29.9 µM (inactive)
- GI50 (SR): 38.6 µM (inactive)
- GI50 (A498): > 100 µM (inactive)
- GI50 (NCI-H460): 37.9 µM (inactive)
- GI50 (NCI-H23): 20.8 µM (inactive)
- GI50 (786-0): 37.8 µM (inactive)
- GI50 (SF-268): 67.1 µM (inactive)
- GI50 (A549): 59.6 µM (inactive)
- GI50 (OVCAR-8): 27 µM (inactive)
- GI50 (LOX IMVI): 40.6 µM (inactive)
- GI50 (UO-31): 41.5 µM (inactive)
- GI50 (SF-295): 26.6 µM (inactive)
- GI50 (BT-549): 92.5 µM (inactive)
- GI50 (RXF 393): 26.8 µM (inactive)
- GI50 (EKVX): 25.4 µM (inactive)
- GI50 (COLO 205): 28.4 µM (inactive)
- GI50 (MOLT-4): 37.8 µM (inactive)
- GI50 (SK-MEL-5): 17.9 µM (inactive)
- GI50 (U-251): 58.2 µM (inactive)
- GI50 (RPMI-8226): 36.8 µM (inactive)
- GI50 (SW-620): > 100 µM (inactive)
- GI50 (UACC-257): 97.9 µM (inactive)
- GI50 (OVCAR-5): 32.1 µM (inactive)
- GI50 (DU-145): 52.4 µM (inactive)
- GI50 (CAKI-1): > 100 µM (inactive)
- GI50 (MDA-MB-435): 33 µM (inactive)
- GI50 (T47D): 57.3 µM (inactive)
- GI50 (Hs-578T): > 10 µM (inactive)
- GI50 (UACC-62): 50.2 µM (inactive)
- GI50 (SN12C): > 100 µM (inactive)
- GI50 (HCT-15): 58.9 µM
- GI50 (SK-MEL-2): 13.4 µM (inactive)
- GI50 (MDA-MB-231): > 100 µM (inactive)
- GI50 (SNB-75): > 100 µM (inactive)
- GI50 (HOP-92): 84.1 µM (inactive)
- GI50 (SK-MEL-28): 98.6 µM (inactive)
- GI50 (OVCAR-3): 20.2 µM (inactive)
- GI50 (MCF7): 35.4 µM (inactive)
- GI50 (HCC 2998): 70.1 µM (inactive)
- GI50 (SNB-19): 21.6 µM (inactive)
- GI50 (SF-539): 47.5 µM (inactive)
- GI50 (HL-60): 35.1 µM (inactive)
- GI50 (MDA-N): 79.1 µM (inactive)
- GI50 (HOP-62): 38.9 µM (inactive)
- GI50 (NCI/ADR-RES): 11 µM (inactive)
- GI50 (HT-29): 21.3 µM (inactive)
- GI50 (M14): 33.3 µM (inactive)
- GI50 (PC-3): 28.2 µM (inactive)
- GI50 (K562): 88.9 µM (inactive)
